Tests used:
Format in all cases: in vitro ADME
[1] = Liver microsomes stability, mouse; settings: for Remaining Percentage / Remaining Percentage (%) 0 min / Remaining Percentage (%) 30 min / Remaining Percentage (%) 60 min: mouse liver microsomes
Procedure: (§1) The objective of this study was to estimate in vitro metabolic stability of exemplary compounds of Formula (I) or a pharmaceutically acceptable salt, solvate, and/or prodrug thereof in pooled human, male rat, and male mouse liver microsomes. The concentrations of compounds in reaction systems were evaluated by LC-MS/MS for estimating the stability in pooled human, male rat, and male mouse liver microsomes. The in vitro intrinsic clearances of test compounds were determined as well.
(§2) A master solution in the “Incubation Plate” containing phosphate buffer, ultra-pure H2O, MgCl2 solution and liver microsomes was made according to Table 33. The mixture was pre-warmed at 37° C. water bath for 5 minutes.
(§3) 40 μL of 10 mM nicotinamide adenine dinucleotide phosphate (NADPH) solution was added to each well. The final concentration of NADPH was 1 mM. The negative control samples were prepared by replacing NADPH with 40 μL of ultra-pure H2O. Samples were prepared in duplicate. Negative controls were prepared in singlet.
(§4) The reaction was started with the addition of 4 μL of 200 μM exemplary test compounds of the disclosure or control compounds to each master solution to get the final concentration of 2 μM. This study was performed in duplicate.
(§5) Aliquots of 50 μL were taken from the reaction solution at 0, 15, 30, 45, and 60 minutes. The reaction solutions were stopped by the addition of 4 volumes of cold methanol with IS (100 nM alprazolam, 200 nM imipramine, 200 nM labetalol, and 2 μM ketoprofen). Samples were centrifuged at 3,220 g for 40 minutes. Aliquot of 90 μL of the supernatant was mixed with 90 μL of ultra-pure H2O and then was used for LC-MS/MS analysis.
(§6) LC/MS analysis was performed for all samples from this study using a Shimadzu liquid chromatograph separation system equipped with degasser DGU-20A5R; solvent delivery unit LC-30AD; system controller SIL-30AC; column oven CTO-30A; CTC Analytics HTC PAL System. Mass spectrometric analysis was performed using a Triple Quad™ 5500 instrument.
(§7) All calculations were carried out using Microsoft Excel. Peak area ratios of test compound to internal standard (listed in the below table) were determined from extracted ion chromatograms.
(§8) All calculations were carried out using Microsoft Excel. Peak areas were determined from extracted ion chromatograms. The slope value, k, was determined by linear regression of the natural logarithm of the remaining percentage of the parent drug vs. incubation time curve.
(§9) The in vitro half-life (in vitro t1/2) was determined from the slope value:
(§10) Conversion of the in vitro t1/2 (min) into the in vitro intrinsic clearance (in vitro CLint, in μL/min/mg proteins) was done using the following equation (mean of duplicate determinations): […]
as §1, with “solvate” for “solvate,”, “rat” for “rat,”
(§11) A master solution in the “Incubation Plate” containing phosphate buffer, ultra-pure H2O, MgCl2 solution and liver microsomes was made according to Table 67. The mixture was pre-warmed at 37° C. water bath for 5 minutes.
(§12) 40 μL of 10 mM NADPH solution was added to each well. The final concentration of NADPH was 1 mM. The negative control samples were prepared by replacing NADPH with 40 μL of ultra-pure H2O. Samples were prepared in duplicate. Negative controls were prepared in singlet
(§13) Aliquots of 50 μL were taken from the reaction solution at 0, 15, 30, 45 and 60 minutes. The reaction solutions were stopped by the addition of 4 volumes of cold methanol with IS (100 nM alprazolam, 200 nM imipramine, 200 nM labetalol and 2 μM ketoprofen). […]

[2] = Liver microsomes stability, human; settings: for Remaining Percentage / Remaining Percentage (%) 0 min / Remaining Percentage (%) 30 min / Remaining Percentage (%) 60 min: human liver microsomes
Procedure: as §1, §2, §3, §4, §5, §6, §7, §8, §9, §10
as §1, with “solvate” for “solvate,”, “rat” for “rat,”
as §11, §12
Aliquots of 50 μL were taken from the reaction solution at 0, 15, 30, 45 and 60 minutes. The reaction solutions were stopped by the addition of 4 volumes of cold methanol with IS (100 nM alprazolam, 200 nM imipramine, 200 nM labetalol and 2 μM ketoprofen).

[3] = Liver microsomes stability, rat; settings: for Remaining Percentage: rat liver microsomes
Procedure: as §1, §2, §3, §4, §5, §6, §7, §8, §9, §10
as §1, with “solvate” for “solvate,”, “rat” for “rat,”
as §11, §12, §13

[4] = Human liver microsomes, 2 μM, 0.5 mg/mL, NADPH
[5] = Rat liver microsomes, 2 μM, 0.5 mg/mL, NADPH

COc1ccc2[nH]cc(CCN(C)C)c2c1 [5-MeO-DMT]
Predicted hepatic CL ([1]; Mouse liver microsomes): 54.19 mL/min/kg | Scaled-up CLint ([1]; Mouse liver microsomes): 136.21 mL/min/kg | T1/2 ([1]; Mouse liver microsomes, 2 μM, 0.5 mg/mL, NADPH, <4.51 if % remaining at 30 min below 1%): 44.52 min | CLint ([1]; Mouse liver microsomes, 2 μM, 0.5 mg/mL, NADPH, >307.01 if % remaining at 30 min below 1%): 31.13 μL/min/mg protein | Remaining Percentage ([1]; With Cofactors, 0 min): 100.00% | Remaining Percentage (%) 0 min ([1]; With Cofactors, 0 min): 100.00% | Remaining Percentage ([1]; With Cofactors, 30 min): 61.84% | Remaining Percentage (%) 30 min ([1]; With Cofactors, 30 min): 61.84% | Remaining Percentage ([1]; With Cofactors, 60 min): 39.30% | Remaining Percentage (%) 60 min ([1]; With Cofactors, 60 min): 39.30% | Remaining Percentage ([1]; Without Cofactors, 0 min): 100.00% | Remaining Percentage (%) 0 min ([1]; Without Cofactors, 0 min): 100.00% | Remaining Percentage ([1]; Without Cofactors, 30 min): 104.76% | Remaining Percentage (%) 30 min ([1]; Without Cofactors, 30 min): 104.76% | Remaining Percentage ([1]; Without Cofactors, 60 min): 95.24% | Remaining Percentage (%) 60 min ([1]; Without Cofactors, 60 min): 95.24% | Predicted hepatic CL ([2]; Human liver microsomes): 18.09 mL/min/kg | Scaled-up CLint ([2]; Human liver microsomes): 143.22 mL/min/kg | CLint [2, 4]: 114.19 μL/min/mg protein | T1/2 [2, 4]: 12.14 min | Remaining Percentage ([2]; With Cofactors, 0 min): 100.00% | Remaining Percentage (%) 0 min ([2]; With Cofactors, 0 min): 100.00% | Remaining Percentage ([2]; With Cofactors, 30 min): 19.24% | Remaining Percentage (%) 30 min ([2]; With Cofactors, 30 min): 19.24% | Remaining Percentage ([2]; With Cofactors, 60 min): 3.25% | Remaining Percentage (%) 60 min ([2]; With Cofactors, 60 min): 3.25% | Remaining Percentage ([2]; Without Cofactors, 0 min): 100.00% | Remaining Percentage (%) 0 min ([2]; Without Cofactors, 0 min): 100.00% | Remaining Percentage ([2]; Without Cofactors, 30 min): 18.58% | Remaining Percentage (%) 30 min ([2]; Without Cofactors, 30 min): 18.58% | Remaining Percentage ([2]; Without Cofactors, 60 min): 3.00% | Remaining Percentage (%) 60 min ([2]; Without Cofactors, 60 min): 3.00% | Predicted hepatic CL ([3]; Rat liver microsomes): 49.02 mL/min/kg | Scaled-up CLint ([3]; Rat liver microsomes): 437.56 mL/min/kg | CLint [3, 5]: 244.17 μL/min/mg protein | T1/2 [3, 5]: 5.68 min | Remaining Percentage (%) 0 min ([3]; Rat liver microsomes, With Cofactors, 0 min): 100.00% | Remaining Percentage (%) 30 min ([3]; Rat liver microsomes, With Cofactors, 30 min): 2.57% | Remaining Percentage (%) 60 min ([3]; Rat liver microsomes, With Cofactors, 60 min): 0.36% | Remaining Percentage (%) 0 min ([3]; Rat liver microsomes, Without Cofactors, 0 min): 100.00% | Remaining Percentage (%) 30 min ([3]; Rat liver microsomes, Without Cofactors, 30 min): 49.55% | Remaining Percentage (%) 60 min ([3]; Rat liver microsomes, Without Cofactors, 60 min): 23.82% | Remaining Percentage ([3]; With Cofactors, 0 min): 100.00% | Remaining Percentage ([3]; With Cofactors, 30 min): 2.57% | Remaining Percentage ([3]; With Cofactors, 60 min): 0.36% | Remaining Percentage ([3]; Without Cofactors, 0 min): 100.00% | Remaining Percentage ([3]; Without Cofactors, 30 min): 49.55% | Remaining Percentage ([3]; Without Cofactors, 60 min): 23.82%

Source: US12606543B2, “Indole derivatives as serotonergic agents useful for the treatment of disorders related thereto” (priority 2023, dated 2026)
